The record followed here is US20250236613A1, “SARM1 MODULATORS, PREPARATIONS, AND USES THEREOF” (SIRONAX LTD., priority 2021, published 2025).

Where only a bound is given, the exact number is not on record here.

Chain of SARM1 (50-724) (Q6SZW1 50-724): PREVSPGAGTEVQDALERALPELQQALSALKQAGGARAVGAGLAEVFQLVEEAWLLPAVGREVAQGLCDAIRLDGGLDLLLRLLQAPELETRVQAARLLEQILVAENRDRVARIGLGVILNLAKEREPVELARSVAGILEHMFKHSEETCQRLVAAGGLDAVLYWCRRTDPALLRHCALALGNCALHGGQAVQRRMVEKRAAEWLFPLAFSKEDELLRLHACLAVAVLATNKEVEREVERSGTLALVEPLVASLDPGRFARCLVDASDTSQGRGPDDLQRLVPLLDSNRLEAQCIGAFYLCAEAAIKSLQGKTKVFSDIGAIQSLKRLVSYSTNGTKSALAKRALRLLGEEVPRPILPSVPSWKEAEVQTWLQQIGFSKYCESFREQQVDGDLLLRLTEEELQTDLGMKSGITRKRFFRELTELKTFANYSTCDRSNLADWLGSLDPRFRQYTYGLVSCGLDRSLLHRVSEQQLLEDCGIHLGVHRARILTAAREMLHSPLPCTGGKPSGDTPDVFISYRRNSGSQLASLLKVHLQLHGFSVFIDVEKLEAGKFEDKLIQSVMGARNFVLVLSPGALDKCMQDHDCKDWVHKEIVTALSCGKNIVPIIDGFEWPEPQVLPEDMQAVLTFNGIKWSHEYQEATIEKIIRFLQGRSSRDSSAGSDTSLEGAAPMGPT

This experiment addresses SARM1 (50-724) (Homo sapiens (Human), UniProt Q6SZW1). Description: SARM1 (50-724) enzymatic assay. The class given is biochemical. Conditions: SARM1 inhibitory activity; 2 nM SARM1 (50-724), 200 μM NMN activator, 100 μM NAD+ substrate, 1 h, LC-MS/MS. On the procedure: The enzymatic assay was performed in a 384-well plate using Dulbecco's PBS buffer as the reaction buffer. Purified SARM1 (50-724) with a final concentration of 2 nM was pre-incubated with the test compound at 1% DMSO final assay concentration for 15 min at room temperature. The reaction was initiated by adding the mixture of 200 μM NMN as activator and 100 μM NAD^+ as substrate. After 1 h of incubation at room temperature, the reaction was terminated with 10 times volume of 70% acetonitrile, then centrifuged at 3800 rpm for 10 min. The samples were analyzed using LC-MS/MS after diluted to the proper concentration by 10 mM ammonium acetate (pH 9.75).
Regarding `O=c1[nH]c2ccc(-c3cncc(Nc4cncnc4)c3)cc2o1` [Compound 114, 6-(5-(pyrimidin-5-ylamino)pyridin-3-yl)benzo[d]oxazol-2(3H)-one], the IC50 is less than 5 µM.
`Cc1ccncc1-c1ccc2[nH]c(=O)sc2c1` [Compound 86, 6-(4-methylpyridin-3-yl)benzo[d]thiazol-2(3H)-one] registered a half-inhibitory concentration (IC50) of less than 5 µM.
Under `O=c1[nH]c2ccc(-c3cncc(Nc4nccs4)c3)cc2o1` [Compound 115, 6-(5-(thiazol-2-ylamino)pyridin-3-yl)benzo[d]oxazol-2(3H)-one] stands less than 5 µM.
With `Cc1ccncc1-c1ccc(O)cc1F` [Compound 12, 3-fluoro-4-(4-methylpyridin-3-yl)phenol] the figure was more than 30 µM.
`Cc1ccncc1-c1ccc2nc(N)ncc2c1` [Compound 71, 6-(4-methylpyridin-3-yl)quinazolin-2-amine] showed a half-maximal inhibitory concentration (IC50) of 15 to 30 µM.
With `Cc1ccncc1-c1ccc(F)c(O)c1F` [Compound 35, 2,6-difluoro-3-(4-methylpyridin-3-yl)phenol] the figure was more than 30 µM.
In the case of `CCc1cc(-c2cnccc2C)ccc1O` [Compound 29, 2-ethyl-4-(4-methylpyridin-3-yl)phenol], the half-inhibitory concentration (IC50) is less than 5 µM.
`COc1ccncc1-c1ccc2[nH]c(=O)oc2c1` [Compound 90, 6-(4-methoxypyridin-3-yl)benzo[d]oxazol-2(3H)-one] yielded a 50% inhibitory concentration (IC50) of less than 5 µM.
With `Cc1c[nH]c(=O)cc1-c1ccc2[nH]c(=O)oc2c1` [Compound 82, 6-(5-methyl-2-oxo-1,2-dihydropyridin-4-yl)benzo[d]oxazol-2(3H)-one] the figure was 15 to 30 µM.
With `Cc1ccncc1-c1ccc(N)c(O)c1` [Compound 42, 2-amino-5-(4-methylpyridin-3-yl)phenol] the figure was less than 5 µM; with `Cc1ccncc1-c1cc(O)cc(C(F)(F)F)c1` [Compound 63, 3-(4-methylpyridin-3-yl)-5-(trifluoromethyl)phenol], less than 5 µM.
`Cc1ccncc1-c1ccc2c(c1)OCCN2` [Compound 53, 7-(4-methylpyridin-3-yl)-3,4-dihydro-2H-benzo[b][1,4]oxazine] displayed an IC50 of more than 30 µM.
Under `Cc1ccncc1-c1ccc(NC(=N)N)cc1` [Compound 69, 1-(4-(4-methylpyridin-3-yl)phenyl)guanidine] stands 15 to 30 µM; under `Cc1ccncc1-c1cc(O)cc(C#N)c1` [Compound 5, 3-hydroxy-5-(4-methylpyridin-3-yl)benzonitrile], less than 5 µM; under `Cc1ccncc1-c1ccc2c(c1)C(F)(F)C(=O)N2` [Compound 81, 3,3-difluoro-5-(4-methylpyridin-3-yl)indolin-2-one], less than 5 µM.
`Cc1ccncc1-c1ccc2[nH]c(=S)oc2c1` [Compound 75, 6-(4-methylpyridin-3-yl)benzo[d]oxazole-2(3H)-thione] gave an IC50 of less than 5 µM.
`O=c1[nH]c2ccc(-c3cncc(Nc4ccccc4)c3)cc2o1` [Compound 87, 6-(5-(phenylamino)pyridin-3-yl)benzo[d]oxazol-2(3H)-one] gave an IC50 of less than 5 µM.
With `Cc1ccncc1-c1cnc2[nH]ncc2c1` [Compound 48, 5-(4-methylpyridin-3-yl)-1H-pyrazolo[3,4-b]pyridine] the figure was 15 to 30 µM.
With `COc1ccncc1-c1cc[nH]c(=O)c1` [Compound 3, 4-methoxy-[3,4′-bipyridin]-2′(1′H)-one] the figure was less than 5 µM; with `O=c1[nH]c2ccc(-c3cncc(Oc4ccccc4)c3)cc2o1` [Compound 119, 6-(5-phenoxypyridin-3-yl)benzo[d]oxazol-2(3H)-one], less than 5 µM; with `Cn1cc(Nc2cncc(-c3ccc4[nH]c(=O)oc4c3)c2)cn1` [Compound 108, 6-(5-((1-methyl-1H-pyrazol-4-yl)amino)pyridin-3-yl)benzo[d]oxazol-2(3H)-one], less than 5 µM.
With `Cc1ccncc1-c1ccc(O)c(O)c1F` [Compound 39, 3-fluoro-4-(4-methylpyridin-3-yl)benzene-1,2-diol] the figure was 15 to 30 µM.
`O=c1[nH]c2ccc(-c3cncc(Nc4ccc(Cl)cc4)c3)cc2o1` [Compound 104, 6-(5-((4-chlorophenyl)amino)pyridin-3-yl)benzo[d]oxazol-2(3H)-one]: the concentration for half-maximal inhibition (IC50) is less than 5 µM.
With `Cc1ccncc1-c1cccc(O)c1` [Compound 4, 3-(4-methylpyridin-3-yl)phenol] the figure was less than 5 µM; with `Cc1ccncc1-c1ccc(Br)c(O)c1` [Compound 17, 2-bromo-5-(4-methylpyridin-3-yl)phenol], less than 5 µM.
As to `Cc1ccncc1-c1cc[nH]c(=O)c1` [Compound 2, 4-methyl-[3,4′-bipyridin]-2′(1′H)-one], the half-maximal inhibitory concentration (IC50) is less than 5 µM.
Under `O=c1[nH]c2ccc(-c3cncc(Nc4ccncc4)c3)cc2o1` [Compound 111, 6-(5-(pyridin-4-ylamino)pyridin-3-yl)benzo[d]oxazol-2(3H)-one] stands less than 5 µM.
As for `Cc1ccncc1-c1ccc2[nH]c(=O)[nH]c2c1` [Compound 44, 5-(4-methylpyridin-3-yl)-1,3-dihydro-2H-benzo[d]imidazol-2-one], the IC50 was less than 5 µM.
With `Cc1ccncc1-c1ccc(O)c(C#N)c1` [Compound 6, 2-hydroxy-5-(4-methylpyridin-3-yl)benzonitrile] the figure was less than 5 µM; with `Cc1ccncc1-c1ccc(O)c(N)c1` [Compound 43, 2-amino-4-(4-methylpyridin-3-yl)phenol], 5 to 15 µM.
Under `CC(=O)c1ccc(-c2cnccc2C)cc1O` [Compound 38, 1-(2-hydroxy-4-(4-methylpyridin-3-yl)phenyl)ethan-1-one] stands 5 to 15 µM; under `CNc1cncc(-c2ccc3[nH]c(=O)oc3c2)c1` [Compound 110, 6-(5-(methylamino)pyridin-3-yl)benzo[d]oxazol-2(3H)-one], less than 5 µM; under `Cc1ccncc1-c1ccc2[nH]ncc2c1F` [Compound 74, 4-fluoro-5-(4-methylpyridin-3-yl)-1H-indazole], 15 to 30 µM.
With `O=c1[nH]c2ccc(-c3cncc(Nc4cccnc4)c3)cc2o1` [Compound 105, 6-(5-(pyridin-3-ylamino)pyridin-3-yl)benzo[d]oxazol-2(3H)-one] the figure was less than 5 µM.
Consider `Cc1ccncc1-c1ccc2[nH]nc(C#N)c2c1` [Compound 92, 5-(4-methylpyridin-3-yl)-1H-indazole 3-carbonitrile], for which the IC50 is less than 5 µM.
`CC(C)(C)OC(=O)N1CCCc2ccc(Nc3cncc(-c4ccc5[nH]c(=O)oc5c4)c3)cc21` [Compound 106, tert-butyl 7-((5-(2-oxo-2,3-dihydrobenzo[d]oxazol-6-yl)pyridin-3-yl)amino)-3,4-dihydroquinoline-1(2H)-carboxylate] had a 50% inhibitory concentration (IC50) of less than 5 µM.
As for `Cc1ccncc1-c1ccc(F)c(O)c1` [Compound 19, 2-fluoro-5-(4-methylpyridin-3-yl)phenol], the IC50 was 5 to 15 µM.
Under `Cc1ccncc1-c1ccc2c(c1)NC(=O)C2` [Compound 55, 6-(4-methylpyridin-3-yl)indolin-2-one] stands 15 to 30 µM; under `Cc1ccncc1-c1cc2cn[nH]c2cn1` [Compound 49, 5-(4-methylpyridin-3-yl)-1H-pyrazolo[3,4-c]pyridine], more than 30 µM; under `Cc1cc(C)c(-c2ccc3[nH]c(=O)oc3c2)cn1` [Compound 67, 6-(4,6-dimethylpyridin-3-yl)benzo[d]oxazol-2(3H)-one], 15 to 30 µM.
With `O=c1[nH]c2ccc(-c3cncc(Nc4ccccn4)c3)cc2o1` [Compound 113, 6-(5-(pyridin-2-ylamino)pyridin-3-yl)benzo[d]oxazol-2(3H)-one] the figure was less than 5 µM; with `Cc1ccncc1-c1ccc2c(c1)NC(=O)CO2` [Compound 51, 6-(4-methylpyridin-3-yl)-2H-benzo[b][1,4]oxazin-3(4H)-one], less than 5 µM; with `Cc1ccncc1-c1cc(Cl)c2[nH]ncc2c1` [Compound 58, 7-chloro-5-(4-methylpyridin-3-yl)-1H-indazole], 5 to 15 µM.
With `Cc1ccncc1-c1ccc2c(c1F)NC(=O)C2=O` [Compound 37, 7-fluoro-6-(4-methylpyridin-3-yl)indoline-2,3-dione] the figure was 5 to 15 µM; with `O=c1[nH]c2ccc(-c3cc(Nc4ccccc4)cnn3)cc2o1` [Compound 112, 6-(5-(phenylamino)pyridazin-3-yl)benzo[d]oxazol-2(3H)-one], less than 5 µM.
In turn, `Cc1ccncc1-c1ccc2[nH]c(C#N)nc2c1` [Compound 89, 5-(4-methylpyridin-3-yl)-1H-benzo[d]imidazole-2-carbonitrile] came in with an IC50 of less than 5 µM.
Under `CN(c1ccccc1)c1cncc(-c2ccc3[nH]c(=O)oc3c2)c1` [Compound 109, 6-(5-(methyl(phenyl)amino)pyridin-3-yl)benzo[d]oxazol-2(3H)-one] stands less than 5 µM.
Under `Cc1ccncc1-c1ccc2[nH]c(=O)oc2c1` [Compound 40, 6-(4-methylpyridin-3-yl)benzo[d]oxazol-2(3H)-one] stands less than 5 µM.
With `O=c1cc(-c2cccnc2)cc[nH]1` [Compound 1, [3,4′-bipyridin]-2′(1′H)-one] the figure was 5 to 15 µM; with `O=c1[nH]c2ccc(-c3cccnc3)cc2o1` [Compound 84, 6-(pyridin-3-yl)benzo[d]oxazol-2(3H)-one], less than 5 µM; with `Cc1ccncc1-c1cccc(C(F)F)c1` [Compound 62, 3-(3-(difluoromethyl)phenyl)-4-methylpyridine], less than 5 µM.
For `Cc1ccncc1-c1cc(O)ccc1F` [Compound 14, 4-fluoro-3-(4-methylpyridin-3-yl)phenol], the IC50 was more than 30 µM.

As a reminder, the IC50 is the midpoint of a concentration-inhibition curve.
